These results are taken from patent US20190315711A1 (eXIthera Pharmaceuticals, Inc., priority 2016, published 2019).

The target of one data set is T1, Trypsin (Bos taurus, UniProt P00760).
T1 construct: gene PRSS1
T1 sequence (P00760 24-246): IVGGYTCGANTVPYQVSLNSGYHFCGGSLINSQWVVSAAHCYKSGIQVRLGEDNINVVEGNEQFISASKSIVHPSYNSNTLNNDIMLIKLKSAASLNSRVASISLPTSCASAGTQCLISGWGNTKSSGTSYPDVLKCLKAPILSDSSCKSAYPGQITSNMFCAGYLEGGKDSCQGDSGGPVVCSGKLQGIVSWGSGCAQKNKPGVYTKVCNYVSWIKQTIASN
Kind of data set: Dose response assay for protease inhibitors: trypsin. Type of data set: biochemical. The conditions noted are these: ratio versus Factor XIa.

The nature of data set [1]: Plasma protein binding by equilibrium dialysis. It is filed as in vitro ADME. The conditions noted are these: both sexes, pooled plasma, pH 7.4, human plasma protein binding, read-out: PPB. In outline: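 Pooled mixed-gender human plasma spiked with 10 μM compound, dialysed against PBS pH 7.4 for 4 h at 37° C. Both compartments quantified by HPLC-MS/MS; percent bound from plasma versus buffer peak areas.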

Data set [2] can be described thus: Caco-2 cell permeability assay (A-B and B-A). It is filed as in vitro ADME. The conditions noted are these: human; for Papp A→B at 60 min, 10 μM: A-B direction; for Papp B→A at 40 min, 10 μM: B-A direction. In outline:
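Caco-2 monolayers were used 21-25 days post-seeding, with compound at 10 μM (1% DMSO) in HBSS-MES pH 6.5 or HBSS-HEPES pH 7.4 on the donor side. Incubation was at 37° C with shaking for 60 min (A−B) or 40 min (B−A). Donor and receiver samples were quantified by HPLC-MS/MS, and Papp and recovery were calculated.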
For orientation: Caco-2 cells form a polarised layer with tight junctions and transporters.

Molecules are shown by their SMILES. Some results are limits rather than exact numbers.

For orientation: Papp A→B means how fast a substance crosses the layer from the apical side. A lower Papp A→B goes with poor permeation. As usually defined, the Papp B→A is the apparent permeability from the basolateral to the apical side of a cell layer. With `CC[C@@H](NC(=O)N1C(=O)[C@H](Cc2ccnc(N)c2)[C@H]1C(=O)N(C)c1ccccc1)C1CCCCC1` [Compound 27], on Trypsin, the “Ratio: Trypsin/FXIa” value was “G (“G” indicates 1-100)”. For the same compound, the fraction unbound at 4 h, 10 μM in data set [1] fell in the range of 0.05 to 0.09. In data set [2], this compound yielded a Papp A→B at 60 min, 10 μM of 11 to 30 ×10⁻⁶ cm/s and an apparent permeability from basolateral to apical (Papp B→A) at 40 min, 10 μM of 11 to 30 ×10⁻⁶ cm/s.

For `CC[C@@H](NC(=O)N1C(=O)[C@H](Cc2ccnc(N)c2)[C@H]1C(=O)N(C)c1ccccc1)C1CC1` [Compound 46], the “Ratio: Trypsin/FXIa” value at Trypsin is reported as “G (“G” indicates 1-100)”. Besides, the fraction unbound at 4 h, 10 μM in data set [1] is 0.1 to 0.5. In addition, in data set [2], the Papp A→B at 60 min, 10 μM is 11 to 30 ×10⁻⁶ cm/s and the basolateral-to-apical permeability (Papp B→A) at 40 min, 10 μM was over 50 ×10⁻⁶ cm/s.

For `CC[C@@H](NC(=O)N1C(=O)[C@H](Cc2ccnc(N)c2)[C@H]1C(=O)N(C)c1ccncc1)c1ccccc1` [Compound 42], the “Ratio: Trypsin/FXIa” value on Trypsin was “G (“G” indicates 1-100)”. In addition, the fraction unbound at 4 h, 10 μM in data set [1] lay within 0.1 to 0.5. In data set [2], this compound registered a Papp A→B at 60 min, 10 μM of at most 10 ×10⁻⁶ cm/s and a Papp B→A at 40 min, 10 μM of 31 to 50 ×10⁻⁶ cm/s.

For `CC[C@@H](NC(=O)N1C(=O)[C@H](Cc2ccnc(NC)c2)[C@H]1C(=O)N(C)c1ncccn1)C1CCCCC1` [Compound 80], the “Ratio: Trypsin/FXIa” value on Trypsin is recorded as “G (“G” indicates 1-100)”. Besides, in data set [1], the fraction unbound at 4 h, 10 μM is under 0.05. In data set [2], the Papp A→B at 60 min, 10 μM lay within 11 to 30 ×10⁻⁶ cm/s and the Papp B→A at 40 min, 10 μM was at most 10 ×10⁻⁶ cm/s.

On to `CN(C(=O)[C@@H]1[C@@H](Cc2ccnc(N)c2)C(=O)N1C(=O)N[C@@H](C1CCCCC1)C1CC1)c1ccccc1` [Compound 36], for which the “Ratio: Trypsin/FXIa” value on Trypsin is “G (“G” indicates 1-100)”. The fraction unbound at 4 h, 10 μM in data set [1] is under 0.05. In data set [2], this compound displayed an apical-to-basolateral permeability (Papp A→B) at 60 min, 10 μM of 31 to 50 ×10⁻⁶ cm/s and an apparent permeability from basolateral to apical (Papp B→A) at 40 min, 10 μM of 11 to 30 ×10⁻⁶ cm/s.

In the case of `CN(C(=O)[C@@H]1[C@@H](Cc2ccnc(N)c2)C(=O)N1C(=O)N[C@@H](C1CCCCC1)C(F)(F)F)c1cncnc1` [Compound 19], the “Ratio: Trypsin/FXIa” value on Trypsin is “G (“G” indicates 1-100)”. Moreover, the fraction unbound at 4 h, 10 μM in data set [1] was in the range of 0.05 to 0.09. In data set [2], this compound displayed a Papp A→B at 60 min, 10 μM of 11 to 30 ×10⁻⁶ cm/s and a Papp B→A at 40 min, 10 μM of 31 to 50 ×10⁻⁶ cm/s.

For `CCN(C(=O)[C@@H]1[C@@H](Cc2ccnc(N)c2)C(=O)N1C(=O)N[C@@H](C1CCCCC1)C(F)(F)F)c1ccccc1` [Compound 24], the “Ratio: Trypsin/FXIa” value at Trypsin was “G (“G” indicates 1-100)”. Besides, the fraction unbound at 4 h, 10 μM in data set [1] is under 0.05. In data set [2], this compound gave a Papp A→B at 60 min, 10 μM of 11 to 30 ×10⁻⁶ cm/s and an apparent permeability from basolateral to apical (Papp B→A) at 40 min, 10 μM of at most 10 ×10⁻⁶ cm/s.

With `CC[C@@H](NC(=O)N1C(=O)[C@H](Cc2ccnc(N)c2)[C@H]1C(=O)N(C)c1ccncc1)C1CCCCC1` [Compound 25], the “Ratio: Trypsin/FXIa” value at Trypsin is recorded as “G (“G” indicates 1-100)”. The fraction unbound at 4 h, 10 μM in data set [1] is 0.1 to 0.5. In data set [2], this compound displayed an apparent permeability from apical to basolateral (Papp A→B) at 60 min, 10 μM of at most 10 ×10⁻⁶ cm/s and a basolateral-to-apical permeability (Papp B→A) at 40 min, 10 μM of 31 to 50 ×10⁻⁶ cm/s.

In the case of `CC[C@H](NC(=O)N1C(=O)[C@H](Cc2ccnc(N)c2)[C@H]1C(=O)N(C)c1ccncc1)c1ccccc1C` [Compound 97], the “Ratio: Trypsin/FXIa” value on Trypsin is “G (“G” indicates 1-100)”. In addition, the fraction unbound at 4 h, 10 μM in data set [1] lay within 0.1 to 0.5. In data set [2], the Papp A→B at 60 min, 10 μM is at most 10 ×10⁻⁶ cm/s and the basolateral-to-apical permeability (Papp B→A) at 40 min, 10 μM is 31 to 50 ×10⁻⁶ cm/s.

Regarding `CN(C(=O)[C@@H]1[C@@H](Cc2ccnc(N)c2)C(=O)N1C(=O)N[C@@H](C1CCCCC1)C1CC1)c1ccncc1` [Compound 52], on Trypsin, the “Ratio: Trypsin/FXIa” value was “G (“G” indicates 1-100)”. The fraction unbound at 4 h, 10 μM in data set [1] fell in the range of 0.05 to 0.09. In data set [2], this compound had an apparent permeability from apical to basolateral (Papp A→B) at 60 min, 10 μM of 11 to 30 ×10⁻⁶ cm/s and a Papp B→A at 40 min, 10 μM of 31 to 50 ×10⁻⁶ cm/s.

For `CC[C@@H](NC(=O)N1C(=O)[C@H](Cc2ccnc(NC(=O)OC(C)(C)C)c2)[C@H]1C(=O)N(C)c1ccncc1)c1cccc(Cl)c1` [Compound 127], the “Ratio: Trypsin/FXIa” value at Trypsin is listed as “H (“H” indicates 101-1000)”. Further, the fraction unbound at 4 h, 10 μM in data set [1] is under 0.05. In data set [2], this compound showed a Papp A→B at 60 min, 10 μM of 11 to 30 ×10⁻⁶ cm/s and a Papp B→A at 40 min, 10 μM of at most 10 ×10⁻⁶ cm/s.

As for `CN(C(=O)[C@@H]1[C@@H](Cc2ccnc(N)c2)C(=O)N1C(=O)NC(c1ccccc1)c1ccccc1)c1ccncc1` [Compound 82], the “Ratio: Trypsin/FXIa” value on Trypsin was “G (“G” indicates 1-100)”. Further, the fraction unbound at 4 h, 10 μM in data set [1] was 0.05 to 0.09. Besides, in data set [2], the Papp A→B at 60 min, 10 μM is at most 10 ×10⁻⁶ cm/s and the basolateral-to-apical permeability (Papp B→A) at 40 min, 10 μM was 31 to 50 ×10⁻⁶ cm/s.

Regarding `CC[C@@H](NC(=O)N1C(=O)[C@H](Cc2cc(C)nc(N)c2)[C@H]1C(=O)N(C)c1ccccc1)C1CCCCC1` [Compound 91], the “Ratio: Trypsin/FXIa” value at Trypsin is listed as “G (“G” indicates 1-100)”. The fraction unbound at 4 h, 10 μM in data set [1] is 0.05 to 0.09. For the same compound, in data set [2], the Papp A→B at 60 min, 10 μM lay within 11 to 30 ×10⁻⁶ cm/s and the apparent permeability from basolateral to apical (Papp B→A) at 40 min, 10 μM is at most 10 ×10⁻⁶ cm/s.

With `CN(C(=O)[C@@H]1[C@@H](Cc2ccnc(N)c2)C(=O)N1C(=O)N[C@@H](C1CCCCC1)C(F)(F)F)c1ncccn1` [Compound 21], at Trypsin, the “Ratio: Trypsin/FXIa” value is “G (“G” indicates 1-100)”. For the same compound, in data set [1], the fraction unbound at 4 h, 10 μM was under 0.05. In data set [2], the Papp A→B at 60 min, 10 μM fell in the range of 11 to 30 ×10⁻⁶ cm/s and the Papp B→A at 40 min, 10 μM was at most 10 ×10⁻⁶ cm/s.

For the compound `CC[C@@H](NC(=O)N1C(=O)[C@H](Cc2ccnc(N)c2)[C@H]1C(=O)N(C)c1ccncc1)c1ccccc1Cl` [Compound 95], the “Ratio: Trypsin/FXIa” value on Trypsin is listed as “G (“G” indicates 1-100)”. In addition, the fraction unbound at 4 h, 10 μM in data set [1] lay in the range of 0.05 to 0.09. Further, in data set [2], the Papp A→B at 60 min, 10 μM is at most 10 ×10⁻⁶ cm/s and the apparent permeability from basolateral to apical (Papp B→A) at 40 min, 10 μM was in the range of 31 to 50 ×10⁻⁶ cm/s.

As for `C[C@@H](NC(=O)N1C(=O)[C@H](Cc2ccnc(N)c2)[C@H]1C(=O)N(C)c1ccccc1)C1CCCCC1` [Compound 49], on Trypsin, the “Ratio: Trypsin/FXIa” value was “G (“G” indicates 1-100)”. In addition, the fraction unbound at 4 h, 10 μM in data set [1] was in the range of 0.05 to 0.09. In data set [2], this compound yielded a Papp A→B at 60 min, 10 μM of over 50 ×10⁻⁶ cm/s and a Papp B→A at 40 min, 10 μM of 11 to 30 ×10⁻⁶ cm/s.

Regarding `CC[C@@H](NC(=O)N1C(=O)[C@H](Cc2ccnc(N)c2)[C@H]1C(=O)N(C)c1ccccc1)c1cccnc1` [Compound 44], at Trypsin, the “Ratio: Trypsin/FXIa” value was “G (“G” indicates 1-100)”. In data set [1], the fraction unbound at 4 h, 10 μM was 0.1 to 0.5. In data set [2], this compound displayed an apparent permeability from apical to basolateral (Papp A→B) at 60 min, 10 μM of at most 10 ×10⁻⁶ cm/s and a Papp B→A at 40 min, 10 μM of 31 to 50 ×10⁻⁶ cm/s.
